In the NIST ThermoML archive (doi:10.1016/j.jct.2017.12.011):
Values joined by “and” are separate entries in the source; they are usually repeats but may differ in a detail not shown here. Equal entries are not always repeated. ± gives the expanded uncertainty stated by the source.

Conditions: Pendant drop shape

surface tension liquid-gas (271.2 K): 76.43 ± 1.8 mN/m and 76.39 ± 1.9 mN/m | surface tension liquid-gas (274.2 K): 75.74 ± 1.8 mN/m and 75.89 ± 1.5 mN/m | surface tension liquid-gas (276.2 K): 75.11 ± 1.5 mN/m and 75.34 ± 1.9 mN/m | surface tension liquid-gas (278.2 K): 74.61 ± 2 mN/m and 74.98 ± 1.9 mN/m | surface tension liquid-gas (280.2 K): 74.5 ± 1.4 mN/m and 74.21 ± 1.3 mN/m
Compound: O [water]
